Results as given in patent US9663508B2, “Biaryl acyl-sulfonamide compounds as sodium channel inhibitors” (AMGEN INC., priority 2013, dated 2017).

What follows are compounds tested against human Nav1.7 (Homo sapiens (Human), UniProt Q15858) (assay: Nav 1.7 in vitro PatchXpress (PX) assay). Settings: not given.
Format: cell-based

Sequence of human Nav1.7 (Q15858 whole entry): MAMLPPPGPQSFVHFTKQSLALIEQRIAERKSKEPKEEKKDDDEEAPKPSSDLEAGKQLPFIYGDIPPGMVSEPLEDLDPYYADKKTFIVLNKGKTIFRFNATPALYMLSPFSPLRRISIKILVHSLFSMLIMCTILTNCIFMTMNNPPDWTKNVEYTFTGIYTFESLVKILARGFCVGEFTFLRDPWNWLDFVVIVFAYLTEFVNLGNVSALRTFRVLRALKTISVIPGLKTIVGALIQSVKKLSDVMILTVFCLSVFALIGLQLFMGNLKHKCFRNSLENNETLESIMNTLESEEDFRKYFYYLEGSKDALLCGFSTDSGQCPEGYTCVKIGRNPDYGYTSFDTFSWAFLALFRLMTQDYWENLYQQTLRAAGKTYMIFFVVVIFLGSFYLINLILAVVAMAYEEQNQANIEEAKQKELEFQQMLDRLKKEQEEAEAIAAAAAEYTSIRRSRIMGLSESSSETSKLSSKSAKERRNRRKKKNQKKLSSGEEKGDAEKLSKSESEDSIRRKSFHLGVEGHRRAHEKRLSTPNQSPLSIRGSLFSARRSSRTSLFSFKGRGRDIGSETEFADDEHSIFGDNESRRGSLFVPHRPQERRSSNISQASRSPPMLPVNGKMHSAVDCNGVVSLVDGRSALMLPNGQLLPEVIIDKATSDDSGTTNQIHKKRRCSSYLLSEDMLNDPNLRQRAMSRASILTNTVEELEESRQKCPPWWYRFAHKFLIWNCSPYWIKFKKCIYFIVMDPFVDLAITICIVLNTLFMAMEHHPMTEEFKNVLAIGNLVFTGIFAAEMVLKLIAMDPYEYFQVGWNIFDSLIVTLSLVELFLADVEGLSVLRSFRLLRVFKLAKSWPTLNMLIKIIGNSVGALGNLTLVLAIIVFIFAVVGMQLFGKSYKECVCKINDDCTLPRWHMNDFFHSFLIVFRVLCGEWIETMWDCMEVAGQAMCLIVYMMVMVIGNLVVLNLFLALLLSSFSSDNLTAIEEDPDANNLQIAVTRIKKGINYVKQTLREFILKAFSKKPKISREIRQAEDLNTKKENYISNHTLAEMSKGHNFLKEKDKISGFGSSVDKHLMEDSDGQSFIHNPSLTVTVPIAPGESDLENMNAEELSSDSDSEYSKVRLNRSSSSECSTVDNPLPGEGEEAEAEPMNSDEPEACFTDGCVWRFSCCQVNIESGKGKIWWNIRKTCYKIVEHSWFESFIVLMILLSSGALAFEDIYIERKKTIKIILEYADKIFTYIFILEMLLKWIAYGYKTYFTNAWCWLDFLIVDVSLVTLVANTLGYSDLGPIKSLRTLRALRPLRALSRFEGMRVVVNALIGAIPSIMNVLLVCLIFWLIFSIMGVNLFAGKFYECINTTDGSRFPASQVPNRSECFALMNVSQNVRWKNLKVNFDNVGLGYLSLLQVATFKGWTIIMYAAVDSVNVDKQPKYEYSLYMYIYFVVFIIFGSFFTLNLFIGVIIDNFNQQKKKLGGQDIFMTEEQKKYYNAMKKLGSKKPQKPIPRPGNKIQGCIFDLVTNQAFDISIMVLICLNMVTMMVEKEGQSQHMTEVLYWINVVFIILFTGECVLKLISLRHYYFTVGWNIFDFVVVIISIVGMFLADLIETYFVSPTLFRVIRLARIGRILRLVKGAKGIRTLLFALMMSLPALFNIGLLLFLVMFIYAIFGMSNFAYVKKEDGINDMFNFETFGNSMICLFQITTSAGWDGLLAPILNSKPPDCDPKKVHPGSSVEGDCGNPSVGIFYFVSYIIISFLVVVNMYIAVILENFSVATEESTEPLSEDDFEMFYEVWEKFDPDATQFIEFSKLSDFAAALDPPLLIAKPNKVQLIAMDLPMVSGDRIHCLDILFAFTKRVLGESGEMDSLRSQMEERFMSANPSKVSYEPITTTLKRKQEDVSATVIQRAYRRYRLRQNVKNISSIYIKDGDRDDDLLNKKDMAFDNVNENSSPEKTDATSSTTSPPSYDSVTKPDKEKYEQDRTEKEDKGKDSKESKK

Compound	IC50
COc1cc(C(=O)NS(C)(=O)=O)ccc1-c1cnc(Oc2ccc(C)c(Cl)c2)c(Cl)c1 [Example 329, 4-(5-chloro-6-(3-chloro-4-methylphenoxy)-3-pyridinyl)-3-methoxy-N-(methylsulfonyl)benzamide]	84.7 nM
COc1cc(C(=O)NS(C)(=O)=O)ccc1-c1cnc(Oc2ccc(Cl)cc2Cl)c(C#N)c1 [Example 691, 4-(5-cyano-6-(2,4-dichlorophenoxy)-3-pyridinyl)-3-methoxy-N-(methylsulfonyl)benzamide]	83.8 nM
Cc1cc(C(=O)NS(C)(=O)=O)c(F)cc1-c1cnc(OC(C(F)(F)F)C(F)(F)F)c(Cl)c1 [Example 686, 4-(5-chloro-6-(2,2,2-trifluoro-1-(trifluoromethyl)ethoxy)-3-pyridinyl)-2-fluoro-5-methyl-N-(methylsulfonyl)benzamide]	115 nM
Cc1cc(Cl)cc(Cl)c1Oc1ncc(-c2ccc(C(=O)NS(C)(=O)=O)cc2OC2COC2)cc1Cl [Example 584, 4-(5-chloro-6-(2,4-dichloro-6-methylphenoxy)-3-pyridinyl)-N-(methylsulfonyl)-3-(3-oxetanyloxy)benzamide]	59 nM
COc1ccc(Cl)c(Oc2ncc(-c3ccc(C(=O)NS(C)(=O)=O)cc3OC)cc2Cl)c1 [Example 369, 4-(5-chloro-6-(2-chloro-5-methoxyphenoxy)-3-pyridinyl)-3-methoxy-N-(methylsulfonyl)benzamide]	90.5 nM
COc1cc(C(=O)NS(C)(=O)=O)ccc1-c1cnc(Oc2ccc(Cl)cc2F)c(Cl)c1 [Example 376, 4-(5-chloro-6-(4-chloro-2-fluorophenoxy)-3-pyridinyl)-3-methoxy-N-(methylsulfonyl)benzamide]	60.3 nM
COc1cc(C(=O)NS(C)(=O)=O)c(F)cc1-c1cnc(OC2CCC2)c(Cl)c1 [Example 702, 4-(5-chloro-6-(cyclobutyloxy)-3-pyridinyl)-2-fluoro-5-methoxy-N-(methylsulfonyl)benzamide]	68.4 nM
Cc1cc(C(=O)NS(C)(=O)=O)c(F)cc1-c1cnc(N2CCC[C@@H]2c2ccccc2C(F)(F)F)c(Cl)c1 [Example 659, 4-(5-chloro-6-((2R)-2-(2-(trifluoromethyl)phenyl)-1-pyrrolidinyl)-3-pyridinyl)-2-fluoro-5-methyl-N-(methylsulfonyl)benzamide, 4-(5-chloro-6-((2S)-2-(2-(trifluoromethyl)phenyl)-1-pyrrolidinyl)-3-pyridinyl)-2-fluoro-5-methyl-N-(methylsulfonyl)benzamide]	107 nM
COc1cc(C(=O)NS(C)(=O)=O)ccc1-c1cnc(Oc2cccc(F)c2F)c(Cl)c1 [Example 402, 4-(5-chloro-6-(2,3-difluorophenoxy)-3-pyridinyl)-3-methoxy-N-(methylsulfonyl)benzamide]	80 nM
CCC(CC)Oc1ncc(-c2cc(F)c(C(=O)NS(C)(=O)=O)cc2Cl)cc1Cl [Example 601, 5-chloro-4-(5-chloro-6-(1-ethylpropoxy)-3-pyridinyl)-2-fluoro-N-(methylsulfonyl)benzamide]	75.4 nM
Cc1ccc(Oc2ncc(-c3ccc(C(=O)NS(C)(=O)=O)cc3OC(F)F)cc2Cl)cc1C [Example 459, 4-(5-chloro-6-(3,4-dimethylphenoxy)-3-pyridinyl)-3-(difluoromethoxy)-N-(methylsulfonyl)benzamide]	95 nM
Cc1ccc(Cl)c(Oc2ncc(-c3ccc(C(=O)NS(C)(=O)=O)cc3OC3COC3)cc2Cl)c1 [Example 423, 4-(5-chloro-6-(2-chloro-5-methylphenoxy)-3-pyridinyl)-N-(methylsulfonyl)-3-(3-oxetanyloxy)benzamide]	38.6 nM
Cc1cc(C(=O)NS(C)(=O)=O)c(F)cc1-c1cnc(Oc2cccc(F)c2F)c(Cl)c1 [Example 604, 4-(5-chloro-6-(2,3-difluorophenoxy)-3-pyridinyl)-2-fluoro-5-methyl-N-(methylsulfonyl)benzamide]	109 nM
Cc1cc(C(=O)NS(C)(=O)=O)c(F)cc1-c1cnc(O[C@@H]2CCCC(C)(C)C2)c(Cl)c1 [Example 687, 4-(5-chloro-6-(((1R)-3,3-dimethylcyclohexyl)oxy)-3-pyridinyl)-2-fluoro-5-methyl-N-(methylsulfonyl)benzamide, 4-(5-chloro-6-(((1S)-3,3-dimethylcyclohexyl)oxy)-3-pyridinyl)-2-fluoro-5-methyl-N-(methylsulfonyl)benzamide]	75.9 nM
Cc1cc(C(=O)NS(C)(=O)=O)c(F)cc1-c1cnc(Oc2ccc(F)c(Cl)c2)c(Cl)c1 [Example 626, 4-(5-chloro-6-(3-chloro-4-fluorophenoxy)-3-pyridinyl)-2-fluoro-5-methyl-N-(methylsulfonyl)benzamide]	108 nM
Cc1c(Cl)cccc1Oc1ncc(-c2ccc(C(=O)NS(C)(=O)=O)cc2OC(F)F)cc1Cl [Example 586, 4-(5-chloro-6-(3-chloro-2-methylphenoxy)-3-pyridinyl)-3-(difluoromethoxy)-N-(methylsulfonyl)benzamide]	34.6 nM
COc1cc(C(=O)NS(C)(=O)=O)ccc1-c1cnc(Oc2cc(Cl)cc(C(F)(F)F)c2)c(Cl)c1 [Example 374, 4-(5-chloro-6-(3-chloro-5-(trifluoromethyl)phenoxy)-3-pyridinyl)-3-methoxy-N-(methylsulfonyl)benzamide]	58.4 nM

Same assay, conditions: in-vitro Nav 1.7 PX data

Compound	IC50
COc1cc(C(=O)NS(C)(=O)=O)c(F)cc1-c1cnc(Oc2ccc(Cl)cc2Cl)c(Cl)c1 [Example 738, 4-(5-chloro-6-(2,4-dichlorophenoxy)-3-pyridinyl)-2-fluoro-5-methoxy-N-(methylsulfonyl)benzamide]	37 nM
COc1cc(C(=O)NS(C)(=O)=O)c(F)cc1-c1cnc(Oc2c(F)ccc(Cl)c2F)c(Cl)c1 [Example 744, 4-(5-chloro-6-(3-chloro-2,6-difluorophenoxy)-3-pyridinyl)-2-fluoro-5-methoxy-N-(methylsulfonyl)benzamide]	67.8 nM
CS(=O)(=O)NC(=O)c1ccc(-c2cnc(Oc3c(F)ccc(F)c3F)c(Cl)c2)c(Cl)c1 [Example 778, 3-chloro-4-(5-chloro-6-(2,3,6-trifluorophenoxy)-3-pyridinyl)-N-(methylsulfonyl)benzamide]	73.4 nM
COc1cc(C(=O)NS(C)(=O)=O)c(F)cc1-c1cnc(Oc2c(C)cccc2Cl)c(Cl)c1 [Example 748, 4-(5-chloro-6-(2-chloro-6-methylphenoxy)-3-pyridinyl)-2-fluoro-5-methoxy-N-(methylsulfonyl)benzamide]	76.4 nM
4-(3-Chloro-4′-Methoxy-2′-Methyl-[2,3′-Bipyridin]-5-yl)-2-Fluoro-5-Methyl-N-(Methylsulfonyl)Benzamide [Example 839]	12800 nM
COc1cc(C(=O)NS(C)(=O)=O)c(F)cc1-c1cnc(Oc2cccc(Cl)c2)c(Cl)c1 [Example 765, 4-(5-chloro-6-(3-chlorophenoxy)-3-pyridinyl)-2-fluoro-5-methoxy-N-(methylsulfonyl)benzamide]	84.9 nM
CCS(=O)(=O)NC(=O)c1ccc(-c2cnc(Oc3c(F)ccc(F)c3F)c(Cl)c2)c(OC)c1 [Example 791, 4-(5-chloro-6-(2,3,6-trifluorophenoxy)-3-pyridinyl)-N-(ethylsulfonyl)-3-methoxybenzamide]	39.4 nM
Cc1cc(C(=O)NS(C)(=O)=O)c(F)cc1-c1ccc(OC(F)(F)C(F)F)cc1 [Example 811, 5-fluoro-2-methyl-N-(methylsulfonyl)-4′-(1,1,2,2-tetrafluoroethoxy)-4-biphenylcarboxamide]	1570 nM
Cc1cc(C(=O)NS(C)(=O)=O)c(F)cc1-c1ccc(Cl)c(C(F)(F)F)c1 [Example 806, 4′-Chloro-5-Fluoro-2-Methyl-N-(Methylsulfonyl)-3′-(Trifluoromethyl)-4-Biphenylcarboxamide]	618 nM
CS(=O)(=O)NC(=O)c1cc(OC(F)F)c(-c2cnc(OC3CCC3)c(Cl)c2)cc1F [Example 781, 4-(5-chloro-6-(cyclobutyloxy)-3-pyridinyl)-5-(difluoromethoxy)-2-fluoro-N-(methylsulfonyl)benzamide]	145 nM
COc1cc(C(=O)NS(C)(=O)=O)c(F)cc1-c1cnc(Oc2cc(F)ccc2C)c(Cl)c1 [Example 743, 4-(5-chloro-6-(5-fluoro-2-methylphenoxy)-3-pyridinyl)-2-fluoro-5-methoxy-N-(methylsulfonyl)benzamide]	96.2 nM
Cc1cc(C(=O)NS(=O)(=O)C2CC2)c(F)cc1-c1cnc(OC2CCC2)c(Cl)c1 [Example 797, 4-(5-chloro-6-(cyclobutyloxy)-3-pyridinyl)-N-(cyclopropylsulfonyl)-2-fluoro-5-methylbenzamide]	98.8 nM
CCC(CC)Nc1ncc(-c2cc(F)c(C(=O)NS(C)(=O)=O)cc2OC)cc1Cl [Example 725, 4-(5-chloro-6-((1-ethylpropyl)amino)-3-pyridinyl)-2-fluoro-5-methoxy-N-(methylsulfonyl)benzamide]	96.5 nM
CC(C)C1CCCN1c1ncc(-c2ccc(C(=O)NS(C)(=O)=O)cc2OC(F)F)cc1Cl (racemic) [compound 833, 4-(5-Chloro-6-(2-Isopropylpyrrolidin-1-yl)Pyridin-3-yl)-3-(Difluoromethoxy)-N-(Methylsulfonyl)Benzamide]	72.1 nM
Cc1cc(C(=O)NS(C)(=O)=O)c(F)cc1-c1ccc(CC2CC2)c(Cl)c1 [Example 813, 3′-chloro-4′-(cyclopropylmethyl)-5-fluoro-2-methyl-N-(methylsulfonyl)-4-biphenylcarboxamide]	141 nM
COc1cc(C(=O)NS(=O)(=O)N2CCC2)ccc1-c1cnc(Oc2cc(Cl)cc(Cl)c2)c(Cl)c1 [Example 773, N-(1-azetidinylsulfonyl)-4-(5-chloro-6-(3,5-dichlorophenoxy)-3-pyridinyl)-3-methoxybenzamide]	114 nM
COc1cc(C(=O)NS(C)(=O)=O)c(F)cc1-c1cnc(N[C@@H]2CCC23CCC3)c(Cl)c1 [Example 722, 4-(5-chloro-6-((1R)-spiro[3.3]hept-1-ylamino)-3-pyridinyl)-2-fluoro-5-methoxy-N-(methylsulfonyl)benzamide, 4-(5-chloro-6-((1S)-spiro[3.3]hept-1-ylamino)-3-pyridinyl)-2-fluoro-5-methoxy-N-(methylsulfonyl)benzamide]	110 nM
